The values that follow come from paper PMC10492782, “Exploiting the aggregation propensity of beta-lactamases to design inhibitors that induce enzyme misfolding” (Nature Communications, 2023).

What all share (type): cell-based, Escherichia coli
One test relates to E. coli NDM5a. Kind of test: VITEK 2 AST antimicrobial susceptibility testing. Conditions: for Interoretation: E. coli NDM5a; for Interpretation: VITEK 2 AST card. The protocol:
(§1) Beta-lactamase clinical samples were collected from University Hospitals Leuven and tested for ESBL production using the disk diffusion method. The beta-lactamase reference isolates were purchased from International Health Management Associates (IHMA). Bacterial strains were cultivated in Mueller–Hinton Broth (MHB, Difco) at 37 °C. Whenever required, growth media were supplemented with appropriate antibiotics to the medium or plates (kanamycin 30 µg/mL, L-arabinose 0.5 mg/mL, and IPTG […]). Escherichia coli BL21 (ThermoFisher Scientific, Belgium) was used for cloning and plasmid amplification. For the selection of antibiotic resistant colonies, E. coli carrying plasmids was grown in LB agar plates supplemented with the relevant antibiotic. Bacterial CFU counting was done on blood agar plates (BD Biosciences, Belgium) or MHA agar plates. Species identification and antibiograms for all clinical isolates were performed using MALDI-Tof and VITEK® 2 automated system (BioMérieux, France).
(§2) Khodaparast et al Supplementary data
(§3) study. […] Abbreviations: S,
(§4) susceptible; I, intermediate; R, resistant.

A further test concerns E. coli TEM-206. Kind of test: VITEK 2 AST antimicrobial susceptibility testing. Conditions: for Interoretation: E. coli TEM-206; for Interpretation: VITEK 2 AST card. The protocol:
as §1, §2, §3, §4

The subject of the next test is E. coli NDM5b. Put plainly: VITEK 2 AST antimicrobial susceptibility testing. The settings on record: for Interoretation: E. coli NDM5b; for Interpretation: VITEK 2 AST card. The method, then:
as §1, §2, §3, §4

The test system of another test is E. coli TEM-148. Kind of test: VITEK 2 AST antimicrobial susceptibility testing. Conditions: for Interoretation: E. coli TEM-148; for Interpretation: VITEK 2 AST card. The protocol:
as §1, §2, §3, §4

Another test concerns E. coli TEM-104. Kind of test: VITEK 2 AST antimicrobial susceptibility testing. Conditions: for Interoretation: E. coli TEM-104; for Interpretation: VITEK 2 AST card. The method, then:
as §1, §2, §3, §4

The subject of the next test is E. coli SHV1 (APHA). Put plainly: VITEK 2 AST antimicrobial susceptibility testing. Conditions: for Interoretation: E. coli SHV154; for Interpretation: VITEK 2 AST card. The method, then:
as §1, §2, §3, §4

The subject of a further test is E. coli TEM-16. Put plainly: VITEK 2 AST antimicrobial susceptibility testing. The settings on record: for Interoretation: E. coli TEM-16; for Interpretation: VITEK 2 AST card. The protocol:
as §1, §2, §3, §4

The subject of the next test is E. coli TEM-30. The settings on record: for Interoretation: E. coli TEM-30; for Interpretation: VITEK 2 AST card. The method, then: as §1, §2, §3, §4

For the molecule `NC[C@H]1O[C@H](O[C@H]2[C@H](O)[C@@H](O[C@H]3O[C@H](CO)[C@@H](O)[C@H](N)[C@H]3O)[C@H](N)C[C@@H]2N)[C@H](N)C[C@@H]1O` [Tobramycin], the Interoretation entry in the test with E. coli NDM5a is “R”; with E. coli TEM-206, “S”; in the test with E. coli NDM5b it was “S”; in the test with E. coli TEM-148, “S”; in the test with E. coli TEM-104 it was “S”; with E. coli SHV1 (APHA) it was “*R”. For the same molecule, the Interoretation entry with E. coli TEM-16 was “S”; in the test with E. coli TEM-30, “*R”. For the same molecule, the Interpretation entry in the test on E. coli NDM5a is reported as “R”; in the test with E. coli NDM5b, “S”; with E. coli TEM-148, “S”; with E. coli TEM-104, “S”; in the test with E. coli SHV1 (APHA), “*R”; in the test on E. coli TEM-16 it was “S”. For the same molecule, the Interpretation entry in the test on E. coli TEM-30 is given as “*R”.
Piperacillin / tazobactam: the Interoretation entry is “R” in the test with E. coli NDM5a; “*R” in the test on E. coli TEM-206; “R” in the test on E. coli NDM5b; “*R” with E. coli TEM-148; “*I” in the test on E. coli TEM-104; “R” with E. coli SHV1 (APHA). Further, the Interoretation result in the test with E. coli TEM-16 and in the test with E. coli TEM-30 was “*R” in each case. Also, the Interpretation entry with E. coli NDM5a is on record as “R”; in the test with E. coli TEM-206, “*R”; in the test on E. coli NDM5b, “R”; with E. coli TEM-148 it was “*R”; with E. coli TEM-104, “*I”; in the test on E. coli SHV1 (APHA) it was “R”. Besides, the Interpretation entry in the test on E. coli TEM-16 and with E. coli TEM-30 was “*R” in each case.
As to Colistin, the Interoretation entry in the test on E. coli NDM5a, with E. coli TEM-206, with E. coli NDM5b, in the test on E. coli TEM-148, in the test with E. coli TEM-104 and in the test with E. coli SHV1 (APHA) was “S” each time. The Interoretation entry with E. coli TEM-16 and in the test with E. coli TEM-30 was “S” each time. Further, the Interpretation entry in the test with E. coli NDM5a, in the test with E. coli TEM-206, in the test with E. coli NDM5b, with E. coli TEM-148, with E. coli TEM-104 and in the test on E. coli SHV1 (APHA) was “S” in each case. Besides, the Interpretation result with E. coli TEM-16 and in the test with E. coli TEM-30 was “S” throughout.
With `CO/N=C(\C(=O)N[C@@H]1C(=O)N2C(C(=O)OC(C)OC(C)=O)=C(COC(N)=O)CS[C@H]12)c1ccco1` (stereo partly drawn) [Cefuroxime Axetil], the Interoretation entry with E. coli NDM5a is on record as “R”; in the test on E. coli TEM-206, “R”; in the test with E. coli NDM5b, “R”; with E. coli TEM-148, “R”; with E. coli TEM-104 it was “S”; in the test on E. coli SHV1 (APHA), “R”. Further, the Interoretation result in the test with E. coli TEM-16 and in the test with E. coli TEM-30 was “R” throughout. Further, the Interpretation result is given as “R” in the test with E. coli NDM5a; “R” in the test on E. coli TEM-206; “R” in the test with E. coli NDM5b; “R” in the test with E. coli TEM-148; “S” with E. coli TEM-104; “R” in the test on E. coli SHV1 (APHA). In addition, the Interpretation result with E. coli TEM-16 and in the test with E. coli TEM-30 was “R” throughout.
As for `CC(C)(O/N=C(\C(=O)N[C@@H]1C(=O)N2C(C(=O)[O-])=C(C[n+]3ccccc3)CS[C@H]12)c1csc(N)n1)C(=O)O` [Ceftazidime], the Interoretation entry is listed as “R” in the test with E. coli NDM5a; “R” with E. coli TEM-206; “R” with E. coli NDM5b; “*I” in the test with E. coli TEM-148; “S” with E. coli TEM-104; “R” in the test with E. coli SHV1 (APHA). Besides, the Interoretation entry in the test with E. coli TEM-16 is given as “R”; in the test on E. coli TEM-30, “*I”. In addition, the Interpretation entry in the test with E. coli NDM5a is “R”; in the test with E. coli TEM-206, “R”; in the test with E. coli NDM5b, “R”; in the test with E. coli TEM-148, “*I”; in the test with E. coli TEM-104 it was “S”; in the test with E. coli SHV1 (APHA) it was “R”. Also, the Interpretation entry in the test on E. coli TEM-16 is listed as “R”; in the test on E. coli TEM-30, “*I”.
For the molecule `CNC(C)C1CCC(N)C(OC2C(N)CC(N)C(OC3OCC(C)(O)C(NC)C3O)C2O)O1` (stereo not drawn) [Gentamicin], the Interoretation entry is listed as “R” in the test with E. coli NDM5a; “S” with E. coli TEM-206; “S” in the test with E. coli NDM5b; “S” in the test on E. coli TEM-148; “S” in the test with E. coli TEM-104; “R” in the test with E. coli SHV1 (APHA). Besides, the Interoretation result with E. coli TEM-16 is “S”; in the test on E. coli TEM-30 it was “R”. For the same molecule, the Interpretation entry in the test with E. coli NDM5a is listed as “R”; in the test on E. coli TEM-206, “S”; in the test with E. coli NDM5b, “S”; in the test with E. coli TEM-148, “S”; in the test with E. coli TEM-104 it was “S”; in the test on E. coli SHV1 (APHA), “R”. Besides, the Interpretation result is reported as “S” in the test on E. coli TEM-16 and “R” with E. coli TEM-30.
Turning to `NCC[C@H](O)C(=O)N[C@@H]1C[C@H](N)[C@@H](O[C@H]2O[C@H](CN)[C@@H](O)[C@H](O)[C@H]2O)[C@H](O)[C@H]1O[C@H]1O[C@H](CO)[C@@H](O)[C@H](N)[C@H]1O` [Amikacin], the Interoretation result in the test with E. coli NDM5a, in the test with E. coli TEM-206, in the test with E. coli NDM5b, in the test with E. coli TEM-148, in the test with E. coli TEM-104 and in the test on E. coli SHV1 (APHA) was “S” each time. For the same molecule, the Interoretation result with E. coli TEM-16 and with E. coli TEM-30 was “S” each time. The Interpretation entry with E. coli NDM5a, in the test with E. coli NDM5b, in the test with E. coli TEM-148, with E. coli TEM-104, in the test on E. coli SHV1 (APHA) and in the test with E. coli TEM-16 was “S” in each case. Further, the Interpretation result with E. coli TEM-30 is recorded as “S”.
Consider `CO/N=C(\C(=O)N[C@@H]1C(=O)N2C(C(=O)O)=C(COC(N)=O)CS[C@H]12)c1ccco1` [Cefuroxime], for which the Interoretation entry with E. coli NDM5a was “R”; in the test with E. coli TEM-206, “R”; in the test on E. coli NDM5b, “R”; in the test with E. coli TEM-148, “R”; in the test on E. coli TEM-104 it was “S”; with E. coli SHV1 (APHA), “R”. The Interoretation result in the test with E. coli TEM-16 and in the test with E. coli TEM-30 was “R” each time. Moreover, the Interpretation entry with E. coli NDM5a was “R”; with E. coli TEM-206, “R”; with E. coli NDM5b it was “R”; in the test on E. coli TEM-148, “R”; with E. coli TEM-104 it was “S”; in the test with E. coli SHV1 (APHA), “R”. For the same molecule, the Interpretation entry in the test with E. coli TEM-16 and in the test on E. coli TEM-30 was “R” throughout.
Take `CN(C)c1cc(NC(=O)CNC(C)(C)C)c(O)c2c1C[C@H]1C[C@H]3[C@H](N(C)C)C(O)=C(C(N)=O)C(=O)[C@@]3(O)C(O)=C1C2=O` [Tigecycline]: the Interoretation result in the test with E. coli NDM5a, with E. coli TEM-206, in the test with E. coli NDM5b, with E. coli TEM-148, in the test with E. coli TEM-104 and in the test with E. coli SHV1 (APHA) was “S” in each case. The figures for the Interoretation entry in the test with E. coli TEM-16 and with E. coli TEM-30 were “S” and “I”, respectively. Besides, the Interpretation entry with E. coli NDM5a, in the test with E. coli TEM-206, in the test on E. coli NDM5b, in the test with E. coli TEM-148, with E. coli TEM-104 and in the test with E. coli SHV1 (APHA) was “S” each time. Moreover, the results for the Interpretation entry in the test on E. coli TEM-16 and in the test with E. coli TEM-30 were “S” and “I”, respectively.
Regarding Amoxicillin + clavulanic acid, the Interoretation result with E. coli NDM5a is on record as “R”; in the test on E. coli TEM-206, “*R”; with E. coli NDM5b, “R”; with E. coli TEM-148, “*R”; in the test with E. coli TEM-104, “R”; with E. coli SHV1 (APHA), “R”. Moreover, the Interoretation result in the test with E. coli TEM-16 and in the test with E. coli TEM-30 was “*R” in each case. Further, the Interpretation entry is recorded as “R” in the test on E. coli NDM5a; “*R” with E. coli TEM-206; “R” in the test with E. coli NDM5b; “*R” in the test on E. coli TEM-148; “R” in the test with E. coli TEM-104; “R” with E. coli SHV1 (APHA). Also, the Interpretation entry with E. coli TEM-16 and in the test with E. coli TEM-30 was “*R” throughout.
Consider `CO[C@@]1(NC(=O)Cc2cccs2)C(=O)N2C(C(=O)O)=C(COC(N)=O)CS[C@@H]21` [Cefoxitin], for which the Interoretation result in the test with E. coli NDM5a is recorded as “R”; in the test with E. coli TEM-206, “S”; in the test on E. coli NDM5b, “R”; with E. coli TEM-148, “S”; in the test with E. coli TEM-104, “S”; with E. coli SHV1 (APHA) it was “R”. Further, the Interoretation entry with E. coli TEM-16 and with E. coli TEM-30 was “S” in each case. The Interpretation entry is given as “R” in the test on E. coli NDM5a; “S” in the test with E. coli TEM-206; “R” in the test with E. coli NDM5b; “S” in the test with E. coli TEM-148; “S” in the test with E. coli TEM-104; “R” in the test on E. coli SHV1 (APHA). Also, the Interpretation result with E. coli TEM-16 and in the test with E. coli TEM-30 was “S” each time.
